Measured values reported in patent US20140228440A1, “1-AMINO-ALKYLCYCLOHEXANE DERIVATIVES FOR THE TREATMENT OF INFLAMMATORY SKIN DISEASES” (MERZ PHARMA GmbH & CO. KGaA, priority 2008, published 2014).

Tested on: Propionibacterium acnes ATCC 11828
Experiment: MIC and MBC by the agar dilution method
Assay type: cell-based
Experimental: To assess the anti-microbial potency of Neramexane against acne relevant bacterias the minimal inhibitory concentration (MIC) and minimal bactericidal concentration (MBC) against the following bacterias is established: The MICs of the samples are determined using the agar dilution method based on DIN 58940. Petri dishes of 5.5 cm diameter are poured with 2.5 ml of freshly prepared Mueller-Hinton agar (Merck company, Cat-No 1.05437) or Wilkins-Chalgren-Agar (Oxoid company, Cat-No CM643), maintained in liquid form at 50° C., to which the sample dilutions at various concentrations have been added at 50.0 vol.-%. To prepare the starting sample dilutions, a 12.5%, 3.12% suspension of the respective sample solution is prepared with Aqua purificata. From these stock-solutions, further dilutions are prepared with Aqua purificata. All test compounds are adjusted to pH 5.5. For test product no. 1, separate dilutions adjusted to pH 6.0 and pH 7.4 are also prepared. For inoculation, 1 μl of the respective germ suspension is placed on the centre of each agar plate. After drying, inoculated plates are incubated at 36.0±2.0° C. The basis for the length of incubation period is the respective growth control cultivated in parallel. The test microbe suspension is prepared by inoculating a few individual colonies of the respective bacteria into sterile saline solution until a turbidity corresponding to the McFarland standard 1.0 (approximately 10^8 cfu/ml) is reached. After that, the test microbe suspensions are further diluted 1:10 with saline solution and the microbial counts (see Table 21) are determined by the surface spread method using a spiral plater. The agar plates are incubated under the conditions given in Table 22 and subsequently evaluated. The MIC-values as given represent the lowest concentration of the active substance at which there is no macroscopically visible growth. Minimal, barely visible growth or few small individual colonies are evaluated as inhibition. [table] All negative tests of the determination of the minimal bactericial concentration are the basis of verification of remaining germs, the inoculated agar segments are cut and put in Mueller-Hinton-Bouillon (germ 1) or Wilkins-Chalgren-Bouillon (germs 2-4). After an adequate incubation period at 36.0±2.0° C. (as judged from a control without test compound), the tests are checked manually on microbial growth (=turbidity) and the minimal bactericidal concentration is determined. MBC indicates the concentration without marked turbidity. Grown germs are checked for identity to rule out unspecific contaminations. The following results are summarized and tabulated: • a) Results of the Minimal Inhibitory Concentration (MIC)* • b) Results of the Minimal Bactericidal Concentration (MBC) *The MIC is the concentration without macroscopical growth. Scarcely apparent, minimum growth or few single colonies are not considered. The controls must have a respectively good developed growth. There must be no growth on the agar plates for the sterile control. The growth of bacteria is indicated for the duplicate plates by a +(i.e., growth) or a −(i.e., no growth), +− indicates weak growth on both plates or growth on one plate and no growth on the other plate. All bacteria show appropriate growth on the respective control plate not containing any test compound. No influence of the used diluent (Aqua purifacata) was observed. No contamination is observed on the control-plates.

[1] = final concentration 0.08 %, pH 5.5
[2] = final concentration 0.08 %, pH 6.0
[3] = final concentration 0.16 %, pH 5.5
[4] = final concentration 0.16 %, pH 6.0
[5] = final concentration 0.16 %, pH 7.4
[6] = final concentration 0.31 %, pH 5.5
[7] = final concentration 0.31 %, pH 6.0
[8] = final concentration 0.31 %, pH 7.4
[9] = final concentration 0.63 %, pH 5.5
[10] = final concentration 0.63 %, pH 6.0
[11] = final concentration 0.63 %, pH 7.4
[12] = final concentration 1.56 %, pH 5.5
[13] = final concentration 1.56 %, pH 6.0
[14] = final concentration 1.56 %, pH 7.4
[15] = final concentration 2.50 %, pH 5.5
[16] = final concentration 2.50 %, pH 6.0
[17] = final concentration 2.50 %, pH 7.4
[18] = final concentration 3.13 %, pH 5.5
[19] = final concentration 3.13 %, pH 6.0
[20] = final concentration 3.13 %, pH 7.4
[21] = final concentration 6.25 %, pH 5.5
[22] = final concentration 6.25 %, pH 6.0
[23] = final concentration 6.25 %, pH 7.4

Which “growth of bacteria on duplicate plates (MIC determination)” value (shortened to “growth of bacteria on duplicate plates”) (final concentration 0.01 %, pH 5.5) does the source give for `CC1(C)CC(C)(C)CC(C)(N)C1.CS(=O)(=O)O` [Neramexane mesylate] here?
The value was “+ +”.

What about the “growth of bacteria on duplicate plates” value (final concentration 0.01 %, pH 6.0) of the same molecule?
The value was “+ +”.

What about the “growth of bacteria on duplicate plates” value (final concentration 0.01 %, pH 7.4) of the same molecule?
Its value is “+ +”.

What about the “growth of bacteria on duplicate plates” value (final concentration 0.04 %, pH 5.5) of the same molecule?
Its value is “+ +”.

And the “growth of bacteria on duplicate plates” value (final concentration 0.04 %, pH 6.0)?
The value was “+ +”.

What about the “growth of bacteria on duplicate plates” value (final concentration 0.04 %, pH 7.4) of the same molecule?
Its value is “+ +”.

And the “growth of bacteria (MBC determination)” value [1]?
The value was “+ +”.

What about the “growth of bacteria on duplicate plates” value [1] of the same molecule?
The value was “− −”.

What about the “growth of bacteria (MBC determination)” value [2] of the same molecule?
The value was “+ +”.

What about the “growth of bacteria on duplicate plates” value [2] of the same molecule?
The value was “− −”.

And the “growth of bacteria on duplicate plates” value (final concentration 0.08 %, pH 7.4)?
Its value is “+ +”.

What about the “growth of bacteria (MBC determination)” value [3] of the same molecule?
The value was “+ +”.

What about the “growth of bacteria on duplicate plates” value [3] of the same molecule?
Its value is “− −”.

And the “growth of bacteria (MBC determination)” value [4]?
Its value is “+ +”.

And the “growth of bacteria on duplicate plates” value [4]?
The value was “− −”.

And the “growth of bacteria (MBC determination)” value [5]?
Its value is “+ +”.

What about the “growth of bacteria on duplicate plates” value [5] of the same molecule?
The value was “− −”.

What about the “growth of bacteria (MBC determination)” value [6] of the same molecule?
The value was “+ +”.

What about the “growth of bacteria on duplicate plates” value [6] of the same molecule?
The value was “− −”.

And the “growth of bacteria (MBC determination)” value [7]?
Its value is “+ +”.

And the “growth of bacteria on duplicate plates” value [7]?
Its value is “− −”.

What about the “growth of bacteria (MBC determination)” value [8] of the same molecule?
The value was “+ +”.

What about the “growth of bacteria on duplicate plates” value [8] of the same molecule?
The value was “− −”.

What about the “growth of bacteria (MBC determination)” value [9] of the same molecule?
The value was “+ +”.

What about the “growth of bacteria on duplicate plates” value [9] of the same molecule?
The value was “− −”.

And the “growth of bacteria (MBC determination)” value [10]?
The value was “− −”.

What about the “growth of bacteria on duplicate plates” value [10] of the same molecule?
The value was “− −”.

What about the “growth of bacteria (MBC determination)” value [11] of the same molecule?
The value was “+ +”.

What about the “growth of bacteria on duplicate plates” value [11] of the same molecule?
The value was “− −”.

What about the “growth of bacteria (MBC determination)” value [12] of the same molecule?
Its value is “− −”.

And the “growth of bacteria on duplicate plates” value [12]?
Its value is “− −”.

What about the “growth of bacteria (MBC determination)” value [13] of the same molecule?
The value was “− −”.

What about the “growth of bacteria on duplicate plates” value [13] of the same molecule?
The value was “− −”.

What about the “growth of bacteria (MBC determination)” value [14] of the same molecule?
The value was “− −”.

And the “growth of bacteria on duplicate plates” value [14]?
Its value is “− −”.

What about the “growth of bacteria (MBC determination)” value [15] of the same molecule?
Its value is “− −”.

What about the “growth of bacteria on duplicate plates” value [15] of the same molecule?
Its value is “− −”.

And the “growth of bacteria (MBC determination)” value [16]?
The value was “− −”.

And the “growth of bacteria on duplicate plates” value [16]?
Its value is “− −”.

What about the “growth of bacteria (MBC determination)” value [17] of the same molecule?
Its value is “− −”.

What about the “growth of bacteria on duplicate plates” value [17] of the same molecule?
The value was “− −”.

What about the “growth of bacteria (MBC determination)” value [18] of the same molecule?
The value was “− −”.

And the “growth of bacteria on duplicate plates” value [18]?
The value was “− −”.

What about the “growth of bacteria (MBC determination)” value [19] of the same molecule?
Its value is “− −”.

What about the “growth of bacteria on duplicate plates” value [19] of the same molecule?
Its value is “− −”.

What about the “growth of bacteria (MBC determination)” value [20] of the same molecule?
The value was “− −”.

What about the “growth of bacteria on duplicate plates” value [20] of the same molecule?
The value was “− −”.

What about the “growth of bacteria (MBC determination)” value [21] of the same molecule?
The value was “− −”.

And the “growth of bacteria on duplicate plates” value [21]?
The value was “− −”.

What about the “growth of bacteria (MBC determination)” value [22] of the same molecule?
Its value is “− −”.

And the “growth of bacteria on duplicate plates” value [22]?
Its value is “− −”.

What about the “growth of bacteria (MBC determination)” value [23] of the same molecule?
Its value is “− −”.

What about the “growth of bacteria on duplicate plates” value [23] of the same molecule?
The value was “− −”.

And the MBC (pH 5.5)?
Its MBC is 1.56%.

What about the MIC (pH 5.5) of the same molecule?
The MIC was 0.08%.

What about the MBC (pH 6.0) of the same molecule?
The MBC was 0.63%.

And the MIC (pH 6.0)?
The MIC was 0.08%.

What about the MBC (pH 7.4) of the same molecule?
The MBC was 1.56%.

What about the MIC (pH 7.4) of the same molecule?
Its MIC is 0.16%.
